The record followed here is US20100099694A1, “2-ANILINO-4-HETEROARYL PYRIMIDINE DERIVATIVES, AND PREPARATION THEREOF AS MEDICAMENTS, PHARMACEUTICAL COMPOSITIONS, AND IN PARTICULAR IKK INHIBITORS” (SANOFI-AVENTIS, priority 2007, published 2010).

Structures are written as SMILES.

Broadly, the melting point is the temperature of the solid-liquid transition.

In turn, `O=S(=O)(c1ccc(Nc2nccc(N3CCc4cc(F)ccc43)n2)cc1)N(CCN1CCCC1)C1CCOCC1` [Example 8, 4-[4-(5-Fluoro-2,3-dihydroindol-1-yl)pyrimidin-2-ylamino]-N-(2-pyrrolidin-1-ylethyl)-N-(tetrahydropyran-4-yl)benzenesulphonamide] had a melting point of 100 °C.

`Cn1cccc1CN1CCC(N(CCN2CCCC2)S(=O)(=O)c2ccc(Nc3nccc(N4CCc5cc(F)ccc54)n3)cc2)CC1` [Example 5, 4-[4-(5-Fluoro-2,3-dihydroindol-1-yl)-pyrimidin-2-ylamino]-N-[1-(1-methyl-1H-pyrrol-2-ylmethyl)piperidin-4-yl]-N-(2-pyrrolidin-1-ylethyl)benzenesulphonamide] yielded a melting point of 94 °C.

As for `O=S(=O)(c1ccc(Nc2nccc(N3CCc4cc(F)ccc43)n2)cc1)N(CCN1CCCC1)C1CCNCC1` [Example 1, 4-[4-(5-Fluoro-2,3-dihydroindol-1-yl)pyrimidin-2-ylamino]-N-piperidin-4-yl-N-(2-pyrrolidin-1-yl-ethyl)benzenesulphonamide], the melting point was 269.5 °C. `O=S(=O)(c1ccc(Nc2nccc(N3CCc4cc(F)ccc43)n2)cc1)N(CCN1CCCC1)C1CCN(Cc2ccsc2)CC1` [Example 4, 4-[4-(5-Fluoro-2,3-dihydroindol-1-yl)pyrimidin-2-ylamino]-N-(2-pyrrolidin-1-ylethyl)-N-(1-thiophen-3-ylmethylpiperidin-4-yl)benzenesulphonamide] showed a melting point of 140 °C. Take `O=S(=O)(c1ccc(Nc2nccc(N3CCc4cc(F)ccc43)n2)cc1)N(CCN1CCCC1)C1CCN(C2CC2)CC1` [Example 2, N-(1-Cyclopropylpiperidin-4-yl)-4-[4-(5-fluoro-2,3-dihydroindol-1-yl)pyrimidin-2-ylamino]-N-(2-pyrrolidin-1-ylethyl)benzenesulphonamide]: the melting point turned out to be 215.4 °C.

For the molecule `O=S(=O)(c1ccc(Nc2nccc(N3CCc4cc(F)ccc43)n2)cc1)N(CCN1CCCC1)C1CCN(CCCC(F)(F)F)CC1` [Example 3, 4-[4-(5-Fluoro-2,3-dihydroindol-1-yl)-pyrimidin-2-ylamino]-N-(2-pyrrolidin-1-ylethyl)-N-[1-(4,4,4-trifluorobutyl)piperidin-4-yl]benzenesulphonamide], the melting point turned out to be 198 °C. For `O=S(=O)(c1ccc(Nc2nccc(N3CCc4cc(F)ccc43)n2)cc1)N(CCN1CCCC1)C1CCN(CC(F)(F)F)CC1` [Example 7, 4-[4-(5-Fluoro-2,3-dihydroindol-1-yl)-pyrimidin-2-ylamino]-N-(2-pyrrolidin-1-ylethyl)-N-[1-(2,2,2-trifluoroethyl)piperidin-4-yl]benzenesulphonamide] the value was 139.3 °C. For `O=S(=O)(c1ccc(Nc2nccc(N3CCc4cc(F)ccc43)n2)cc1)N(CCN1CCCC1)C1CCN(CCC(F)(F)F)CC1` [Example 6, 4-[4-(5-Fluoro-2,3-dihydroindol-1-yl)-pyrimidin-2-ylamino]-N-(2-pyrrolidin-1-ylethyl)-N-[1-(3,3,3-trifluoropropyl)piperidin-4-yl]benzenesulphonamide] the value was 147 °C.
